Reference: patent US11555012B2 (Nimbus Artemis, Inc., priority 2018, dated 2023)

Target: ACL (Homo sapiens (Human), UniProt P53396)
Assay: ADP-Glo Assay

ACL, sequence (P53396 other isoform, or with tags, fused parts or gaps isoform P53396-2): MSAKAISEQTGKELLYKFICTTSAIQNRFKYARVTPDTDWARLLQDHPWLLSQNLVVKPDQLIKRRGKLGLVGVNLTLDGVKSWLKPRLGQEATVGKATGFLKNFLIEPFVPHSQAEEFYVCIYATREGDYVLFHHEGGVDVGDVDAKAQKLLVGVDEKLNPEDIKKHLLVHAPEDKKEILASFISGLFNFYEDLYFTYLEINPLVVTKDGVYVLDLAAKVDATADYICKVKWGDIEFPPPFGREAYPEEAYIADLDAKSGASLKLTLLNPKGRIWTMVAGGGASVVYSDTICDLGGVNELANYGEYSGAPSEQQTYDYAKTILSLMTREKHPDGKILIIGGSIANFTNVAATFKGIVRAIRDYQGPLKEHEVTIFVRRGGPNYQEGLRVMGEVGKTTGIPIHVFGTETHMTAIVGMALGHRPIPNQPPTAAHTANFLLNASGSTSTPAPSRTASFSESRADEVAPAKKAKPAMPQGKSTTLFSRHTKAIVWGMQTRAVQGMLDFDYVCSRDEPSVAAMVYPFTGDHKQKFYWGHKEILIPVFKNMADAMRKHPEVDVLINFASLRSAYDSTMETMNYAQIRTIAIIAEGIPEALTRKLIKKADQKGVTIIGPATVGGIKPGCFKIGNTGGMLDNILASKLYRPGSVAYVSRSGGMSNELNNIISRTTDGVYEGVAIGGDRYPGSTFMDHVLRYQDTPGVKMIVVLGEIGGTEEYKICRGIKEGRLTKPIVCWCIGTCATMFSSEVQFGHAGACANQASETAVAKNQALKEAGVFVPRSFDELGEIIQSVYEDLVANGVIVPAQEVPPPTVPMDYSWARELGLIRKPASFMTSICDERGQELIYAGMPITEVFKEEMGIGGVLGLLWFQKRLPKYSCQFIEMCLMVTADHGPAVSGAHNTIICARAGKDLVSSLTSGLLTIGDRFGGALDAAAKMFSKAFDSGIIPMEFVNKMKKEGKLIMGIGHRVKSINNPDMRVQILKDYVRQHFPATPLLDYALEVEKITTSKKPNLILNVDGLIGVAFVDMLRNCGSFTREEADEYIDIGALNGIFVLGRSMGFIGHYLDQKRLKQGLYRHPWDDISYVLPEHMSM

Row | IC50 [µM] | SMILES
1 | 0.5 to 20 | COc1ccc(-c2ccccc2)cc1NS(=O)(=O)c1cc(Cl)cc(C(=O)O)c1O [I-3, 5-chloro-2-hydroxy-3-(N-(4-methoxy-[1,1′-biphenyl]-3-yl)sulfamoyl)benzoic Acid]
2 | 0.5 to 20 | COc1ccc(Br)cc1NS(=O)(=O)c1cc(Cl)cc(Cl)c1O [I-4, N-(5-bromo-2-methoxyphenyl)-3,5-dichloro-2-Hydroxybenzenesulfonamide]
3 | 0.5 to 20 | COc1ccc(-c2ccc(OC)c(NS(=O)(=O)c3cc(Cl)cc(Cl)c3O)c2)cc1 [I-5, 3,5-dichloro-N-(4,4′-dimethoxy-[1,1′-biphenyl]-3-yl)-2-hydroxybenzenesulfonamide]
4 | 0.5 to 20 | COc1ccc(NC(=O)C2CC2)cc1NS(=O)(=O)c1cc(Cl)cc(Cl)c1O [I-8, N-(3-((3,5-dichloro-2-hydroxyphenyl)sulfonamido)-4-methoxyphenyl) cyclopropanecarboxamide]
5 | 0.5 to 20 | COc1ccc(N2CCCCC2)cc1NS(=O)(=O)c1cc(Cl)cc(Cl)c1O [I-10, 3,5-dichloro-2-hydroxy-N-(2-methoxy-5-(piperidin-1-yl)phenyl)benzenesulfonamide]
6 | 0.5 to 20 | COc1cccc(-c2ccccc2)c1NS(=O)(=O)c1cc(Cl)cc(Cl)c1O [I-14, 3,5-dichloro-2-hydroxy-N-(3-methoxy-[1,1′-biphenyl]-2-yl)benzenesulfonamide]
7 | 0.5 to 20 | COc1ccc(-c2ccccc2)cc1N(C)S(=O)(=O)c1cc(Cl)cc(Cl)c1O [I-17, 3,5-dichloro-2-hydroxy-N-(4-methoxy-[1,1′-biphenyl]-3-yl)-N-methylbenzenesulfonamide]
8 | 0.5 to 20 | COc1ccc(-c2ccccc2)cc1NC(=O)c1cc(Cl)cc(Cl)c1O [I-18, 3,5-dichloro-2-hydroxy-N-(4-methoxy-[1,1′-biphenyl]-3-yl)benzamide]
9 | 0.5 to 20 | O=S(=O)(Nc1cc(-c2ccccc2)ccc1O)c1cccc(-c2nn[nH]n2)c1 [I-25, N-(2-hydroxy-5-phenylphenyl)-3-(2H-1,2,3,4-tetrazol-5-yl) benzene-1-sulfonamide]
10 | 0.5 to 20 | O=C(Nc1cc(-c2ccccc2)ccc1F)c1cc(Cl)cc(Cl)c1O [I-27, 3,5-dichloro-N-(4-fluoro-[1,1′-biphenyl]-3-yl)-2-hydroxybenzamide]
11 | 0.5 to 20 | O=S(=O)(Nc1cc(-c2ccccc2)ccc1F)c1cc(Cl)ccc1O [I-30, 5-chloro-N-(2-fluoro-5-phenylphenyl)-2-hydroxybenzene-1-sulfonamide]
12 | 0.5 to 20 | O=S(=O)(Nc1cc(-c2ccccc2)ccc1F)c1ccccc1O [I-35, N-(2-fluoro-5-phenylphenyl)-2-hydroxybenzene-1-sulfonamide]
13 | 0.5 to 20 | O=S(=O)(Nc1cc(-c2ccccc2)ccc1F)c1cccc(-c2nn[nH]n2)c1 [I-37, N-(2-fluoro-5-phenylphenyl)-3-(2H-1,2,3,4-tetrazol-5-yl) benzene-1-sulfonamide]
14 | 0.5 to 20 | COc1ccc(-c2ccccc2)cc1NS(=O)(=O)c1cc(Cl)cc(-c2nn[nH]n2)c1 [I-38, 3-chloro-N-(2-methoxy-5-phenylphenyl)-5-(2H-1,2,3,4-tetrazol-5-yl)benzene-1-sulfonamide]
15 | 0.5 to 20 | COc1ccc(-c2ccccc2)cc1NS(=O)(=O)c1cc(C(=O)O)cc(Cl)c1OC [I-39, 3-chloro-4-methoxy-5-(N-(4-methoxy-[1,1′-biphenyl]-3-yl)sulfamoyl)benzoic Acid]
16 | 0.5 to 20 | COc1ccc(-c2ccccc2)cc1NS(=O)(=O)c1cc(F)cc(F)c1O [I-40, 3,5-difluoro-2-hydroxy-N-(2-methoxy-5-phenylphenyl) benzene-1-sulfonamide]
17 | 0.5 to 20 | COC(=O)c1cc(Cl)c(OC)c(S(=O)(=O)Nc2cc(-c3cccnc3)ccc2OC)c1 [I-42, Methyl 3-chloro-4-methoxy-5-(N-(2-methoxy-5-(pyridine-3-yl)phenyl)sulfamoyl)benzoate]
18 | 0.5 to 20 | COC(=O)c1ccc(F)c(NS(=O)(=O)c2cc(Cl)cc(Cl)c2O)c1 [I-43, Methyl 3-((3,5-dichloro-2-hydroxyphenyl)sulfonamido)-4-fluorobenzoate]
19 | 0.5 to 20 | COc1ccc(-c2ccccc2)cc1NS(=O)(=O)c1cc(Cl)c(O)c(Br)c1 [I-44, 3-bromo-5-chloro-4-hydroxy-N-(2-methoxy-5-phenylphenyl)benzene-1-sulfonamide]
20 | 0.5 to 20 | O=C(NO)c1ccc(F)c(NS(=O)(=O)c2cc(Cl)cc(Cl)c2O)c1 [I-45, 3-[(3,5-dichloro-2-hydroxybenzene)sulfonamido]-4-fluoro-N-hydroxybenzamide]
21 | 0.5 to 20 | COc1c(Cl)cc(C#N)cc1S(=O)(=O)Nc1cc(-c2ccccc2)ccc1F [I-51, 3-chloro-5-cyano-N-(4-fluoro-[1,1′-biphenyl]-3-yl)-2-methoxybenzenesulfonamide]
22 | 0.5 to 20 | COC(=O)c1cc(Cl)c(OC)c(S(=O)(=O)Nc2cc(-c3cccs3)ccc2F)c1 [I-52, Methyl 3-chloro-5-(N-(2-fluoro-5-(thiophen-2-yl)phenyl)sulfamoyl)-4-methoxybenzoate]

Row | IC50 [µM] | SMILES
23 | 0.5 to 20 | O=S(=O)(Nc1cc(-c2ccccc2)ccc1F)c1cc(Cl)c(O)cc1O [I-54, 5-chloro-N-(2-fluoro-5-phenylphenyl)-2,4-dihydroxybenzene-1-sulfonamide]
24 | 0.5 to 20 | Nc1cc(-c2ccccc2)ccc1NS(=O)(=O)c1cc(Cl)cc(Br)c1O [I-57, N-(2-amino-4-phenylphenyl)-3-bromo-5-chloro-2-hydroxybenzene-1-sulfonamide]
25 | 0.5 to 20 | O=C(Nc1ccccc1)c1ccc(F)c(NS(=O)(=O)c2cc(Cl)cc(Cl)c2O)c1 [I-61, 3-((3,5-dichloro-2-hydroxyphenyl)sulfonamido)-4-fluoro-N-phenylbenzamide]
26 | 0.5 to 20 | COC(=O)c1cc(Cl)c(OC)c(S(=O)(=O)Nc2cc(-c3ccccc3)c(F)cc2F)c1 [I-63, Methyl 3-chloro-5-(N-(4,6-difluoro-[1,1′-biphenyl]-3-yl)sulfamoyl)-4-methoxybenzoate]
27 | 0.5 to 20 | COc1ccc(-c2ccccc2)cc1NS(=O)(=O)c1cc(CC(=O)O)cc(Cl)c1O [I-68, 2-[3-chloro-4-hydroxy-5-[(2-methoxy-5-phenylphenyl)sulfamoyl]phenyl]acetic Acid]
28 | 0.5 to 20 | O=S(=O)(Nc1cc(F)ccc1F)c1cc(Cl)cc(Cl)c1O [I-69, 3,5-dichloro-N-(2,5-difluorophenyl)-2-hydroxybenzene-1-sulfonamide]
29 | 0.5 to 20 | COc1c(Cl)cc(C(=O)O)cc1S(=O)(=O)Nc1cc(-c2ccccc2)ccc1F [I-70, 3-chloro-5-([4-fluoro-[1,1-biphenyl]-3-yl]sulfamoyl)-4-methoxybenzoic Acid]
30 | 0.5 to 20 | COc1ccc(-c2ccccc2)cc1NS(=O)(=O)c1cc(-c2nn[nH]n2)cc(Cl)c1OC [I-71, 3-chloro-2-methoxy-N-(2-methoxy-5-phenylphenyl)-5-(2H-1,2,3,4-tetrazol-5-yl)benzene-1-sulfonamide]
31 | 0.5 to 20 | O=S(=O)(Nc1cc(-c2ccccc2)c(F)cc1F)c1cc(Cl)cc(-c2nn[nH]n2)c1 [I-72, 3-chloro-N-(2,4-difluoro-5-phenylphenyl)-5-(2H-1,2,3,4-tetrazol-5-yl)benzene-1-sulfonamide]
32 | 0.5 to 20 | COc1ccc(-c2ccccc2)cc1NS(=O)(=O)c1cc(-c2nn[nH]n2)cc(Cl)c1O [I-73, 3-chloro-2-hydroxy-N-(2-methoxy-5-phenylphenyl)-5-(2H-1,2,3,4-tetrazol-5-yl)benzene-1-sulfonamide]
33 | 0.5 to 20 | N#Cc1cc(Cl)cc(S(=O)(=O)Nc2cc(-c3ccccc3)c(F)cc2F)c1 [I-75, 3-chloro-5-cyano-N-(2,4-difluoro-5-phenylphenyl) benzene-1-sulfonamide]
34 | 0.5 to 20 | O=C(O)c1cc(Cl)c(O)c(S(=O)(=O)Nc2ccc(F)cc2F)c1 [I-76, 3-chloro-5-[(2,4-difluorophenyl)sulfamoyl]-4-hydroxybenzoic Acid]
35 | 0.5 to 20 | O=C(O)COc1c(Cl)cc(Cl)cc1S(=O)(=O)Nc1cc(-c2ccccc2)c(F)cc1F [I-77, 2-(2,4-dichloro-6-(N-(4,6-difluoro-[1,1′-biphenyl]-3-yl)sulfamoyl)phenoxy)acetic Acid]
36 | 0.5 to 20 | COC(=O)COc1c(Br)cc(Cl)cc1S(=O)(=O)Nc1cc(-c2ccccc2)ccc1F [I-78, Methyl 2-(2-bromo-4-chloro-6-(N-(4-fluoro-[1,1′-biphenyl]-3-yl)sulfamoyl)phenoxy)acetate]
37 | 0.5 to 20 | COC(=O)COc1c(Cl)cc(Cl)cc1S(=O)(=O)Nc1cc(-c2ccccc2)c(F)cc1F [I-79, Methyl 2-[2,4-dichloro-6-[(2,4-difluoro-5-phenylphenyl)sulfamoyl]phenoxy]acetate]
38 | 0.5 to 20 | O=S(=O)(Nc1cc(-c2ccccc2)ccc1F)c1cc(Cl)cc(Cl)c1OCC(F)(F)F [I-85, 3,5-dichloro-N-(2-fluoro-5-phenylphenyl)-2-(2,2,2-trifluoroethoxy)benzene-1-sulfonamide]
39 | 0.5 to 20 | O=S(=O)(Nc1sccc1-c1ccccc1)c1cc(Cl)cc(Cl)c1O [I-89, 3,5-dichloro-2-hydroxy-N-(3-phenylthiophen-2-yl) benzenesulfonamide]
40 | 0.5 to 20 | O=S(=O)(Nc1cc(-c2ccccc2)c(F)cc1F)c1cccc(-c2nn[nH]n2)c1 [I-96, N-(2,4-difluoro-5-phenylphenyl)-3-(2H-1,2,3,4-tetrazol-5-yl)benzene-1-sulfonamide]
41 | 0.5 to 20 | O=S(=O)(Nc1cc(-c2ccccc2)ccc1F)c1cc(Cl)cc(Cl)c1Oc1nccs1 [I-97, 3,5-dichloro-N-(2-fluoro-5-phenylphenyl)-2-(1,3-thiazol-2-yloxy)benzene-1-sulfonamide]
42 | 0.5 to 20 | C=CCN(c1cc(-c2ccccc2)ccc1F)S(=O)(=O)c1cc(C(=O)OC)cc(Cl)c1O [I-108, Methyl 3-(N-allyl-N-(4-fluoro-[1,1′-biphenyl]-3-yl)sulfamoyl)-5-chloro-4-hydroxybenzoate]
43 | 0.5 to 20 | Cn1ncc(-c2ccccc2)c1NS(=O)(=O)c1cc(Cl)cc(Cl)c1O [I-109, 3,5-dichloro-2-hydroxy-N-(1-methyl-4-phenyl-1H-pyrazol-5-yl)benzenesulfonamide]
44 | 0.5 to 20 | COC(=O)c1cc(Cl)c(OCC(=O)O)c(S(=O)(=O)Nc2cc(-c3ccccc3)ccc2F)c1 [I-114, 2-[2-chloro-6-([4-fluoro-[1,1-biphenyl]-3-yl]sulfamoyl)-4-(methoxycarbonyl)phenoxy]acetic Acid]
